Assays:
[1] = system: human platelet-rich plasma; assay: Aggregometry in platelet-rich plasma; assay type: cell-based; settings: for platelet responsiveness / aggregation with varying polyol level: fixed submaximal ADP or TRAP6, varying pre-incubation levels
Procedure: Aggregometry in platelet rich plasma (PRP) was performed as previously described^40 and outlined in supplemental methods.
Platelet rich plasma (PRP) was isolated as previously described.^5 Whole blood was drawn from healthy donors and anticoagulated with sodium citrate (0.109 M). PRP was prepared by centrifuging at 100×g for 10 min at 22° C. Platelet poor plasma (PPP) was obtained by additional centrifugation of the remaining blood samples at 11,000×g for 2 min. Next, platelets were counted with a hemocytometer and the platelet concentration adjusted to 2×10^8/mL using PPP. PRPs were then pre-incubated with xylitol (Catalogue #X3375-5G, Sigma, St. Louis, MO, USA) at indicated concentrations or vehicle (saline) for 30 min at 22° C. After exposure to xylitol or vehicle, PRPs were maintained in suspension with constant stirring (600 rpm) at 37° C. Subsequently, platelet aggregation was induced by adding the agonists ADP (up to 5 μM, Catalogue #384, Chronolog, Havertown, PA, US) or TRAP6 (TFLLR-NH2, up to 10 μM, Catalogue #464, Tocris, Bristol, UK). For all platelet aggregometry experiments, blood was always processed within approx. 30 minutes of collection, and isolated platelets were used within 120 minutes of isolation. When used, pairs of vehicle vs. xylitol incubated PRP were always incubated and analyzed together (beginning, middle, end of platelet prep use) and after 120 minutes post isolation, PRPs were not used anymore.
Platelet rich plasma (PRP) and platelet poor plasma (PPP) was prepared as previously described with sodium citrate (0.109 M) as anticoagulant^51. Platelets were counted and concentrations adjusted to 2×10^8/mL with PPP. PRPs were pre-incubated with erythritol (Catalogue #E7500, Sigma, St. Louis, MO, USA), glucose (Catalogue #G7021, Sigma, St. Louis, MO, USA) or 1,5-AHG (Catalogue #29874, Cayman Chemical, Ann Arbor, Michigan, USA) (at indicated concentrations) or vehicle (saline) for 30 min at 22° C. After pre-incubation PRPs were maintained in suspension with constant stirring (600 rpm) at 37° C. and platelet aggregation was initiated using ADP (up to 5 μM, Catalogue #384, Chronolog, Havertown, PA, US) or TRAP6 (TFLLR-NH2, up to […], Catalogue #464, Tocris, Bristol, UK).

[2] = system: stable subjects undergoing elective diagnostic cardiac evaluation (Validation / US cohort); set-up: species or system human; settings: in vivo
Excerpt: Our second clinical study employed an independent non-overlapping Validation Cohort, where we employed quantitative stable isotope dilution liquid chromatography tandem mass spectrometry (LC-MS/MS) to determine xylitol levels in serum samples from 2,149 patients (non-overlapping from GeneBank at the Cleveland Clinic; clinicaltrials.gov identifier: NCT0059020).^35-36
In both, the Discovery and Validation Cohorts, Major Adverse Cardiovascular Events (MACE) were defined as death, nonfatal myocardial infarction, or nonfatal cerebrovascular accident (stroke) during follow-up. Adjudicated long term survival data were collected through medical records review and Social Security Death Index query. Cardiovascular disease (CVD) was indicated as presence of peripheral artery disease or coronary artery disease, indicated as any clinical history of myocardial infarction, coronary revascularization (including percutaneous coronary intervention, coronary artery bypass surgery), or angiographic evidence of significant stenosis (≥50%) in 1 or more major coronary arteries. Estimated glomerular filtration rate (eGFR) in both cohorts was calculated based on the recent Chronic Kidney Disease Epidemiology Collaboration 2021 CKD-EPI Creatinine equation.^37 Platelet-related hematology analyses were performed with an Advia 120 hematology analyzer (Siemens, New York, NY).^38 Use of anti-platelet agents (=1556) was defined as either aspirin or a P2Y12 agent or both. All observational studies in this example are reported in compliance with the STrengthening the Reporting of Observational studies in Epidemiology (STROBE)-Statement.^39 Information on gender of study participants of the Discovery and Validation Cohorts is reported in Table 1-3.
Stable-isotope-dilution LC-MS/MS was developed to specifically quantify xylitol in human and mouse plasma, urine and feces (fecal pellets were dissolved in water and supernatant subjected to LC-MS/MS). Accuracy and precision of the method to quantify xylitol (separated from its structural isomers arabitol and rabitol) were assessed by a standard addition method 4 of pure synthetic standard into three different plasma pools. Accuracy was 2.4-2.8%, and intra- and inter-day coefficients of variation (CVs), were 1.2-8.9% and 10.9-11.5%, respectively. Urine creatinine was similarly analyzed by stable-isotope-dilution LC-MS/MS using D3-creatinine as internal standard as previously described.^47 Erythritol was quantified by stable-isotope-dilution LC-MS/MS as previously described.^19 Details for all assays can be found in the additional methods.
Continuous variables are summarized as median (interquartile range [IQR]), and categorical variables are presented as %. […]

Row | SMILES | stimulus-dependent platelet aggregation response to ADP and TRAP6 ([1]; PRP incubated with the polyol versus vehicle, submaximal agonist) | platelet responsiveness / aggregation with varying polyol level [1] | erythritol concentration eliciting significant increase in ADP-stimulated aggregometry responses ([1]; threshold, FIG. 27) [µM] | erythritol concentration eliciting significant increase in thrombin-stimulated aggregometry responses ([1]; threshold, FIG. 27) [µM] | HR [95% CI] incident event risk [2] | HR with 95% CI [2] | adjusted HR [95% CI] incident MACE [2] | stimulus-dependent platelet activation and aggregation ([1]; xylitol 30 μM with sub-maximal ADP or TRAP6) | effect on PRP without agonist ([1]; xylitol 30 μM, brief incubation) | HR [95% CI] for incident (3 year) MACE [2]
1 | OC[C@@H](O)[C@@H](O)CO [erythritol] | significant increase | dose-dependently enhanced | 18 | 18 | 2.64 [1.79-3.90] | 1.21 (1.12-1.31) | 1.80 [1.18-2.77] | – | – | –
2 | OC[C@@H](O)[C@H](O)[C@@H](O)CO [xylitol] | – | dose-dependent enhancement | – | – | – | – | – | marked enhancement | no effect | 2.31 [1.52-3.52]
